Test system: primary cultures of rat hippocampus neurons
Assay: release of [3H]-L-glutamate from primary cultures of rat hippocampus neurons (neuronal exocytosis)
Assay type: cell-based
Procedure: Assay of the Activity of the Irreversibly Chemically Modified Peptides Derived from the SNAP-25 Protein on the Neuronal Exocytosis of [^3H]-L-Glutamate
The exocytosis of this neurotransmitter in neuronal cultures can be obtained by means of electric depolarization of the cells. The primary cultures of rat embryonic hippocampus are prepared using conventional methods [Blanes-Mira C., Merino J. M., Valera E., Fernández-Ballester G., Gutiérrez L. M., Viniegra S., Pérez-Payá E. and Ferrer-Montiel A. “Small peptides patterned after the N-terminus domain of SNAP25 inhibit SNARE complex assembly and regulated exocytosis” J. Neurochem. 88, 124-135] and are maintained in culture for 14 days in an incubator at 37° C. and 5% CO2. The cultures are incubated with [^3H]-L-glutamine in order to load them with [^3H]-L-glutamate for 3 h at 37° C. The excess [^3H]-L-glutamine is subsequent washed off and they are incubated with 0.1 mM of the peptides to be studied for 1 h at 37° C. The [^3H]-L-glutamate is released by means of depolarization with 75 mM KCl and 2 mM CaCl2 buffered in physiological buffer for 10 min at 37° C. The culture medium is collected and the amount of [^3H]-L-glutamate is quantified in a beta radiation meter. The results are normalized with regard to the release of [^3H]-L-glutamate in the absence of the peptide and corrected from the basal release in the absence of calcium.

**Q.** Which “concentration required to reach inhibition levels comparable to those of the irreversibly modified peptides” value (compared with modified peptides at 0.1 mM, in the range of 30 times greater) does the source give for “SEQ ID No.11: unmodified peptide derived from the amino acid sequence of the SNAP-25 protein, residues 12 to 17 (EEMQRR) (listed as Homo sapiens)” here?
**A.** The value was ~3 mM.

**Q.** And the “inhibition of the release of [3H]-L-glutamate” value (peptide 0.1 mM, 1 h at 37° C., depolarization with 75 mM KCl and 2 mM CaCl2, FIG. 1)?
**A.** Its value is 5%.

Source: patent US9464129B2, “Neuronal exocytosis inhibiting peptides” (BCN PEPTIDES S.A., priority 2006, dated 2016)
